The values that follow come from patent publication US9284283B2, “Macrocyclic compounds for modulating IL-17” (ENSEMBLE THERAPEUTICS CORPORATION, priority 2012, dated 2016).

As usually defined, the IC50 is the midpoint of a concentration-inhibition curve. By Kd is commonly meant a measure of binding affinity in units of concentration. Low values mean tighter binding, high ones weaker binding.

The target of the first test is T1, biotinylated human IL-17 (binding to IL17R/Fc) (Homo sapiens, UniProt Q16552).
T1 construct: purchased R&D Systems 317-ILB (IL-17, biotinylated); 177-IR (IL17R/Fc)
T1 sequence (Q16552 20-155 limits assumed): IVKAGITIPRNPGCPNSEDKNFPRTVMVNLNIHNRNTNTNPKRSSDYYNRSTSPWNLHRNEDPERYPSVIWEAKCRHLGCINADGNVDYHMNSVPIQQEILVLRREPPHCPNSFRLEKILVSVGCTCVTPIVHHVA
Kind of test: IL-17 competition ELISA II (captured IL17R/Fc, biotinylated IL-17).
Conditions: not given
A digest of the protocol:
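Competition read-out: absorbance at 450 nm after streptavidin-HRP/TMB detection, fitted to a 4-parameter logistic model bounded by no-competitor and blank wells to give IC50. Compound was serially diluted 5-fold from 1 μM alongside 20 nM (stock) biotinylated IL-17 on IL17R/Fc (10 nM) captured via goat anti-human IgG, 30 min at room temperature.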
For orientation: ELISA stands for enzyme-linked immunosorbent assay.
Take `O=C1CC2(CCCC2)CC(=O)N[C@H](Cc2ccc(NC(=O)[C@H](Cc3ccccc3F)NC(=O)Cc3ccccc3)cc2)C(=O)NCCCC[C@@H](C(=O)O)N1` [Compound 179]: the IC50 is under 100 nM.

Regarding `CC(C)(C)[C@H](NC(=O)Cc1ccccc1)C(=O)Nc1ccc(C[C@H]2NC(=O)CC3(CCCC3)CC(=O)NCCCCCNC(=O)CNC2=O)cc1` [Compound 231], the IC50 was 100 to 1000 nM.

Another test has as its target T2, IL17A (Homo sapiens, UniProt Q16552).
T2 sequence (Q16552 24-155): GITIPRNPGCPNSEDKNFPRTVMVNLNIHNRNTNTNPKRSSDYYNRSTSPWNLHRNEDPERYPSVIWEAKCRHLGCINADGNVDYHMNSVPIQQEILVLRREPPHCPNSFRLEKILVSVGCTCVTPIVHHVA
Kind of test: Surface Plasmon Resonance (SPR) analysis of compound interactions with IL17A. Conditions: SPR binding to IL17A. On the procedure: SPR analysis was carried out with a GE Healthcare (Piscataway, N.J.) Biacore X100 system. Typically, the chip (NTA Biacore Biosensor chip; GE Healthcare BR-1000-34) was first conditioned by injection of 0.35 M EDTA, which also served to remove any immobilized proteins from previous runs. Before immobilization of the recombinant 6-His-tagged IL17, the chip was washed with 0.5 mM nickel chloride in NTA buffer (10 mM HEPES buffer, 0.15 M sodium chloride, 10 μM ethylene diamine tetraacetic acid, 0.005% v/v surfactant P20 (GE Healthcare BR-1000-54)) to form a nickel chelate on the chip. IL17 protein was immobilized onto a NTA chip through its 6-His tag. IL17A was typically injected at 0.25 μM for 60-120 seconds, followed by a stabilization step washing with NTA+0.5% DMSO for 120 seconds or longer.
Five 2-fold or 3-fold serial dilutions of test compound were injected serially onto the chip. All steps were conducted using NTA buffer containing 0.5% v/v dimethylsulfoxide (DMSO). Compounds were diluted from stock solutions of 10 mM concentration in 100% DMSO with NTA buffer to obtain 50 μM solutions in NTA+0.5% DMSO. Subsequent 2× or 3× dilutions were made in NTA+0.5% DMSO. Compound was generally injected for 180 seconds followed by washing the chip in buffer alone for 120 seconds. The rate of refractive index change (RU units/time) and the maximum extend of RU change was measured during the “on” phase of analyte injection, followed by measuring the rate during the “off” phase.
Kinetic parameter fits were conducted using the Biacore SPR Evaluation Program (GE Healthcare) for 1:1 molecular binding fits, after subtracting the baseline average of 2 or more runs in which no analyte was injected. This program then reports the best fit average for the “on” rate (Ka), the “off” rate (Kd) and the dissociation constant (KD) (Chaiken, I et al., Anal Biochem 201, 197-210 (1992)). A separate program in the Biacore SPR Evaluation Program then calculates the best fit for Kd based upon the extent of binding alone (RU units bound) at each concentration of analyte and reports the best fit Kd by best fit to a Lineweaver-Burke plot. Typically, the Kd value calculated through both means agreed within a factor of three.
The presence and activity of IL17 on the NTA chip was routinely confirmed three ways: • 1) An increase in response units (RU) upon immobilization confirms that the IL17 was immobilized on the chip; • 2) Anti-IL17 was also injected on the chip to confirm the presence of IL17; and • 3) IL17R was injected onto the chip to confirm that the immobilized IL17 retained its binding activity for its receptor. Negative controls to access specificity for compound binding were conducted by immobilizing unrelated, but his-tagged, proteins (such as cyclophilin D) and conducting the same analysis as done with IL17A.
`COC(=O)[C@H]1CCCCNC(=O)C(C)(C)NC(=O)[C@@H](Cc2ccc(NC(=O)[C@H](Cc3ccccc3Cl)NC(=O)c3ccccc3)cc2)NC(=O)CC2(CCCC2)CC(=O)N1` [Compound 146] displayed a Kd of under 100 nM. Same read-out and setting: for `COC(=O)[C@H]1CCCCNC(=O)[C@H](CO)NC(=O)[C@@H](Cc2ccc(NC(=O)[C@H](Cc3ccccc3Cl)NC(=O)Cc3ccccc3)cc2)NC(=O)CC2(CCCC2)CC(=O)N1` [Compound 147] the value was 100 to 1000 nM; for `COC(=O)[C@H]1CCCCNC(=O)[C@H](CO)NC(=O)[C@@H](Cc2ccc(NC(=O)[C@H](Cc3ccccc3Cl)NC(=O)c3ccccc3)cc2)NC(=O)CC2(CCCC2)CC(=O)N1` [Compound 148], 100 to 1000 nM; for `COC(=O)[C@H]1CCCCNC(=O)CNC(=O)[C@@H](Cc2ccc(NC(=O)[C@H](Cc3ccccc3F)NC(=O)Cc3ccccc3)cc2)NC(=O)CC2(CCCC2)CC(=O)N1` [Compound 149], under 100 nM. Same read-out and setting: the same measure for `COC(=O)[C@H]1CCCCNC(=O)CNC(=O)[C@@H](Cc2ccc(NC(=O)[C@H](Cc3ccccc3F)NC(=O)c3ccccc3)cc2)NC(=O)CC2(CCCC2)CC(=O)N1` [Compound 150]: under 100 nM; for `COC(=O)[C@@H]1CCCCNC(=O)CNC(=O)[C@@H](Cc2ccc(NC(=O)[C@H](Cc3ccccc3F)NC(=O)c3ccccc3)cc2)NC(=O)CC2(CCCC2)CC(=O)N1` [Compound 151]: under 100 nM. On the same count and under the same terms, for `CC(=O)N[C@@H](Cc1ccccc1Cl)C(=O)Nc1ccc(C[C@H]2NC(=O)CC3(CCCC3)CC(=O)NCCCNC(=O)CNC2=O)cc1` [Compound 152] the value was 100 to 1000 nM; for `CC(=O)N[C@@H](Cc1ccccc1Cl)C(=O)Nc1ccc(C[C@H]2NC(=O)CC3(CCCC3)CC(=O)NCCCCCNC(=O)CCNC2=O)cc1` [Compound 154], under 100 nM. The compound `CC(=O)N[C@@H](Cc1ccccc1Cl)C(=O)Nc1ccc(C[C@H]2NC(=O)CC3(CCCC3)CC(=O)NCCCCCNC(=O)CCCNC2=O)cc1` [Compound 155] gave a Kd of under 100 nM. In turn, `O=C1CNC(=O)[C@@H](Cc2ccc(NC(=O)[C@H](Cc3ccccc3Cl)NC(=O)Cc3ccccc3)cc2)NC(=O)CC2(CCCC2)CC(=O)NCCCN1` [Compound 156] came in with a Kd of under 100 nM. In turn, `O=C1CCNC(=O)[C@@H](Cc2ccc(NC(=O)[C@H](Cc3ccccc3Cl)NC(=O)Cc3ccccc3)cc2)NC(=O)CC2(CCCC2)CC(=O)NCCCN1` [Compound 157] displayed a Kd of under 100 nM. On to `O=C1CCNC(=O)[C@@H](Cc2ccc(NC(=O)[C@H](Cc3ccccc3Cl)NC(=O)Cc3ccccc3)cc2)NC(=O)CC2(CCCC2)CC(=O)NCCCCCN1` [Compound 160], for which the Kd is under 100 nM.

Regarding `O=C1CCCNC(=O)[C@@H](Cc2ccc(NC(=O)[C@H](Cc3ccccc3Cl)NC(=O)Cc3ccccc3)cc2)NC(=O)CC2(CCCC2)CC(=O)NCCCCCN1` [Compound 161], the Kd was under 100 nM.

Consider `O=C1CNC(=O)[C@@H](Cc2ccc(NC(=O)[C@H](Cc3ccccc3Cl)NC(=O)Cc3ccccc3)cc2)NC(=O)CC2(CCCC2)CC(=O)NCCCCN1` [Compound 162], for which the Kd was under 100 nM.

Compound `CC(=O)N[C@@H](Cc1ccccc1Cl)C(=O)Nc1ccc(C[C@H]2NC(=O)CC3(CCCC3)CC(=O)NCCCCNC(=O)CNC2=O)cc1` [Compound 163] registered a Kd of under 100 nM. The compound `CC(=O)N[C@@H](Cc1ccccc1Cl)C(=O)Nc1ccc(C[C@H]2NC(=O)CC3(CCCC3)CC(=O)NCCCCNC(=O)CCNC2=O)cc1` [Compound 165] had a Kd of under 100 nM. For `O=C1CCCNC(=O)[C@@H](Cc2ccc(NC(=O)[C@H](Cc3ccccc3Cl)NC(=O)Cc3ccccc3)cc2)NC(=O)CC2(CCCC2)CC(=O)NCCCCN1` [Compound 166], the dissociation constant Kd was under 100 nM.

For the compound `CC(=O)N[C@@H](Cc1ccccc1Cl)C(=O)Nc1ccc(C[C@H]2NC(=O)CC3(CCCC3)CC(=O)NCCCCNC(=O)CCCNC2=O)cc1` [Compound 167], the Kd is under 100 nM. The same measure, in the same setting: the same measure for `O=C1CCNC(=O)[C@@H](Cc2ccc(NC(=O)[C@H](Cc3ccccc3Cl)NC(=O)Cc3ccccc3)cc2)NC(=O)CC2(CCCC2)CC(=O)N(CCO)CCCCCN1` [Compound 170]: under 100 nM. The compound `CC(=O)N[C@@H](Cc1ccccc1Cl)C(=O)Nc1ccc(C[C@H]2NC(=O)CC3(CCCC3)CC(=O)N(CCO)CCCCCNC(=O)CCNC2=O)cc1` [Compound 171] displayed a Kd of under 100 nM. Same read-out and setting: the same measure for `O=C1CCCNC(=O)[C@@H](Cc2ccc(NC(=O)[C@H](Cc3ccccc3Cl)NC(=O)Cc3ccccc3)cc2)NC(=O)CC2(CCCC2)CC(=O)N(CCO)CCCCCN1` [Compound 172]: under 100 nM; for `CC(=O)N[C@@H](Cc1ccccc1Cl)C(=O)Nc1ccc(C[C@H]2NC(=O)CC3(CCCC3)CC(=O)N(CCO)CCCCCNC(=O)CCCNC2=O)cc1` [Compound 173]: under 100 nM; for `O=C1CCCNC(=O)[C@H](Cc2ccc(NC(=O)[C@H](Cc3ccccc3F)NC(=O)Cc3ccccc3)cc2)NC(=O)CC2(CCCC2)CC(=O)N[C@H](C(=O)O)CCCCN1` [Compound 174]: 100 to 1000 nM. In turn, `O=C1CCCNC(=O)[C@@H](Cc2ccc(NC(=O)[C@H](Cc3ccccc3F)NC(=O)Cc3ccccc3)cc2)NC(=O)CC2(CCCC2)CC(=O)N[C@H](C(=O)O)CCCCN1` [Compound 175] displayed a Kd of 100 to 1000 nM. With `O=C1CCCNC(=O)[C@@H](Cc2ccc(NC(=O)[C@H](Cc3ccccc3F)NC(=O)Cc3ccccc3)cc2)NC(=O)CC2(CCCC2)CC(=O)N[C@@H](C(=O)O)CCCCN1` [Compound 176], the Kd was 100 to 1000 nM. For `O=C1CCCNC(=O)[C@@H](Cc2ccc(NC(=O)[C@H](Cc3ccc(-c4ccccc4)cc3)NC(=O)c3ccccc3)cc2)NC(=O)CC2(CCCC2)CC(=O)N[C@H](C(=O)O)CCCCN1` [Compound 178], the Kd lay in the range of 100 to 1000 nM.

`O=C1CC2(CCCC2)CC(=O)N[C@H](Cc2ccc(NC(=O)[C@H](Cc3ccccc3F)NC(=O)Cc3ccccc3)cc2)C(=O)NCCCC[C@@H](C(=O)O)N1` [Compound 179] returned a Kd of 100 to 1000 nM. Same read-out and setting: the same measure for `CC1(C)NC(=O)[C@@H](Cc2ccc(NC(=O)[C@H](Cc3ccccc3Cl)NC(=O)Cc3ccccc3)cc2)NC(=O)CC2(CCCC2)CC(=O)N[C@@H](C(=O)O)CCCCNC1=O` [Compound 182]: 100 to 1000 nM; for `O=C1CNC(=O)[C@@H](Cc2ccc(NC(=O)[C@H](Cc3ccc(O)cc3)NC(=O)Cc3ccc(O)cc3)cc2)NC(=O)CC2(CCCC2)CC(=O)NCCCCCN1` [Compound 189]: under 100 nM. Still for that read-out and setting: the same measure for `O=C1CNC(=O)[C@@H](Cc2ccc(NC(=O)[C@H](Cc3c(F)cccc3F)NC(=O)Cc3ccc(O)cc3)cc2)NC(=O)CC2(CCCC2)CC(=O)NCCCCCN1` [Compound 190]: 100 to 1000 nM.

For `O=C1CNC(=O)[C@@H](Cc2ccc(NC(=O)[C@H](Cc3ccccc3Cl)NC(=O)c3ccncc3)cc2)NC(=O)CC2(CCCC2)CC(=O)NCCCCCN1` [Compound 208], the Kd was under 100 nM.

The compound `O=C1CNC(=O)[C@@H](Cc2ccc(NC(=O)[C@H](Cc3ccc(Cl)cc3Cl)NC(=O)Cc3ccccc3)cc2)NC(=O)CC2(CCCC2)CC(=O)NCCOCCN1` [Compound 210] had a Kd of under 100 nM. On the same count and under the same terms, the same measure for `O=C1CNC(=O)[C@@H](Cc2ccc(NC(=O)[C@H](Cc3ccccc3Cl)NC(=O)c3ccc(O)cc3)cc2)NC(=O)CC2(CCCC2)CC(=O)NCCCCCN1` [Compound 215]: under 100 nM; for `CC(C)(C)[C@H](NC(=O)Cc1ccccc1)C(=O)Nc1ccc(C[C@H]2NC(=O)CC3(CCCC3)CC(=O)NCCCCCNC(=O)CNC2=O)cc1` [Compound 231]: 100 to 1000 nM.
